Test results as given in patent US8889666B2, “Quinolyl pyrrolo pyrimidyl condensed-ring compound and salt thereof” (Taiho Pharmaceutical Co., Ltd., priority 2012, dated 2014).
pIC50: −log10 of the molar value.

How the values were obtained:
EGFR (T790M/L858R) = target: T1, EGFR (T790M/L858R) (Homo sapiens, UniProt P00533, L858R/T790M); assay: EGFR (T790M/L858R) kinase inhibitory activity (in vitro); type: biochemical; conditions: for pIC50: recombinant human protein, ATP 1 μM, 120 minutes; for inhibitory activities for EGFR (L858R), EGFR (d746-750), EGFR (T790M/L858R) and EGFR (d746-750/T790M), in words: summary of Table 1, all four mutant kinases
T1 construct: purchased Carna Biosciences, Inc
Method: 1) Measurement of EGFR (T790M/L858R) Kinase Inhibitory Activity
The inhibitory activities of the compounds I-1, I-2, I-3, I-4, I-5, I-6, I-7, I-8, and I-9 for EGFR (T790M/L858R) kinase were measured.
The materials were as follows. The substrate peptide was a biotinylated peptide (biotin-EEPLYWSFPAKKK) synthesized by reference to the amino acid sequence of FL-Peptide 22 (a reagent for LabChip® Series; Caliper Life Sciences, Inc.). The EGFR (T790M/L858R) was a purified recombinant human EGFR (T790M/L858R) protein purchased from Carna Biosciences, Inc.
(§1) The measurement method was as follows. The compounds I-1, I-2, I-3, I-4, I-5, I-6, I-7, I-8, and I-9 were each dissolved in dimethylsulfoxide (DMSO), and then each serially diluted with DMSO. Next, the EGFR (T790M/L858R) protein, substrate peptide (final concentration: 250 nM), magnesium chloride (final concentration: 10 mM), manganese chloride (final concentration: 10 mM), ATP (final concentration: 1 μM), and the diluted DMSO solution of each compound (final concentration of DMSO: 2.5%) were added to a kinase reaction buffer (Carna Biosciences, Inc.), and the mixture was incubated at 25° C. for 120 minutes for kinase reaction. EDTA was added thereto to a final concentration of 24 mM to thereby terminate the reaction. Then, a detection solution containing europium (Eu)-labeled anti-phosphorylated tyrosine antibody PT66 (PerkinElmer) and SureLight APC-SA (PerkinElmer) was added, and the resulting mixture was allowed to stand at room temperature for 2 hours or more. Finally, the intensity of fluorescence under the excitation light with a wavelength of 337 nm was measured by a PHERAstar FS (BMG LABTECH) at two wavelengths of 620 nm and 665 nm. The level of phosphorylation of each test sample was calculated from the fluorescence intensity ratio of the two wavelengths in DMSO control and in the test sample, and the compound concentration at which phosphorylation was inhibited by 50% was determined as the IC50 value (nM) of each compound.

EGFR (d746-750/T790M) = target: T2, EGFR (d746-750/T790M) (Homo sapiens, UniProt P00533, DEL746-750/T790M); assay: EGFR (d746-750/T790M) kinase inhibitory activity (in vitro); type: biochemical; conditions: recombinant human protein, ATP 1.5 μM
T2 construct: purchased Carna Biosciences, Inc
Method: as §1
2) Measurement of EGFR (d746-750/T790M) Kinase Inhibitory Activity
The inhibitory activities of the compounds I-1, I-2, I-3, I-4, I-5, I-6, I-7, I-8, and I-9 for EGFR (d746-750/T790M) kinase were measured.
(§2) The materials were as follows. The EGFR (d746-750/T790M) was a purified recombinant human EGFR (d746-750/T790M) protein purchased from Carna Biosciences, Inc. The final concentration of ATP was 1.5 μM. As for other conditions, the same materials and methods as those used in the measurement of EGFR (T790M/L858R) kinase inhibitory activity were used to determine the IC50 value (nM) of each compound.

EGFR (L858R) = target: T3, EGFR (L858R) (Homo sapiens, UniProt P00533, L858R); assay: EGFR (L858R) kinase inhibitory activity (in vitro); type: biochemical; conditions: recombinant human protein, ATP 4 μM
T3 construct: purchased Carna Biosciences, Inc
Method: as §1
3) Measurement of EGFR (L858R) Kinase Inhibitory Activity
The inhibitory activities of the compounds I-1, I-2, I-3, I-4, I-5, I-6, I-7, I-8, and I-9 for EGFR (L858R) kinase were measured.
as §2, with “(L858R)” for “(d746-750/T790M)”, “4” for “1.5”

EGFR (d746-750) = target: T4, EGFR (d746-750) (Homo sapiens, UniProt P00533, DEL746-750); assay: EGFR (d746-750) kinase inhibitory activity (in vitro); type: biochemical; conditions: recombinant human protein, ATP 5 μM, 90 minutes
T4 construct: purchased Carna Biosciences, Inc
Method: as §1
4) Measurement of EGFR (d746-750) Kinase Inhibitory Activity
The inhibitory activities of the compounds I-1, I-2, I-3, I-4, I-5, I-6, I-7, I-8, and I-9 for EGFR (d746-750) kinase activity were measured.
as §2, with “(d746-750)” for “(d746-750/T790M)”, “5” for “1.5”, “μM. The incubation time for the kinase reaction was 90 minutes.” for “μM.”

EGFR (WT) = target: T5, EGFR (WT) (Homo sapiens, UniProt P00533); assay: EGFR (WT) kinase inhibitory activity (in vitro); type: biochemical; conditions: for pIC50: cytoplasmic domain of human EGFR (WT), ATP 4.7 μM, substrate peptide 500 nM; for inhibitory activities for EGFR (WT) compared with the mutant EGFR proteins, in words: summary of Table 1
T5 construct: the cytoplasmic domain of human EGFR (WT); FLAG (N); made in house; host or cells: baculovirus expression system, insect Sf9 cells
Method: as §1
The inhibitory activities of the compounds I-1, I-2, I-3, I-4, I-5, I-6, I-7, I-8, and I-9 on EGFR (WT) kinase were measured.
The materials were as follows. As the EGFR (WT), the cytoplasmic domain of human EGFR (WT) in which a FLAG tag was fused to the N-terminus was expressed in a baculovirus expression system using insect Sf9 cells, and purified with anti-FLAG antibody agarose (Sigma-Aldrich). The final concentration of the substrate peptide was 500 nM, and the final concentration of ATP was 4.7 μM. As for other conditions, the same materials and methods as those used in the measurement of EGFR (T790M/L858R) kinase inhibitory activity were used to determine the IC50 value (nM) of each compound.

[1] = tested on: lung adenocarcinoma cell line NCI-H1975 expressing EGFR (T790M/L858R); assay: Growth inhibitory activity, EGFR (T790M/L858R)-expressing cell line; type: cell-based, human; conditions: for GI50: Homo sapiens, NCI-H1975, 72 h, three days culture, CellTiter-Glo; for growth-inhibitory activities for EGFR (d746-750)-expressing and EGFR (T790M/L858R)-expressing cells, in words: summary of Table 2, NCI-H1975 and HCC827
Method: (§3) 1) A lung adenocarcinoma cell line NCI-H1975 expressing EGFR (T790M/L858R), 2) a lung adenocarcinoma cell line HCC827 expressing EGFR (d746-750), and 3) a human epidermoid carcinoma cell line A431 expressing EGFR (WT) were each suspended in the medium recommended by ATCC. The cell suspension was seeded in each well of a 384-well flat microplate or 96-well flat plate, and cultured in an incubator containing 5% carbon dioxide gas at 37° C. for one day. The compound of the present invention and the reference compound were dissolved in DMSO, and then the DMSO solution of each test compound was diluted with DMSO to a concentration 200 times higher than the final concentration. The diluted DMSO solution of the test compound was diluted with the medium used to suspend each cell line, and the diluted solution was added to each well of the cell culture plate so that the final concentration of DMSO was 0.5%. Then, the cells were cultured in an incubator containing 5% carbon dioxide gas at 37° C. for three days. The number of cells was measured at the time of initiation and termination of the culture by using a CellTiter-Glo Assay (produced by Promega) according to a protocol recommended by Promega. The cell growth inhibition rate was calculated by the following formula, and the concentration of the test compound at which the cell growth was inhibited by 50% (GI50 (nM)) was determined. Growth inhibition rate (%)=(C−T)/(C−C0)×100
(§4) T: Luminescence intensity of well to which test compound was added
(§5) C: Luminescence intensity of well to which test compound was not added
(§6) C0: Luminescence intensity of well measured before addition of test compound

[2] = tested on: lung adenocarcinoma cell line HCC827 expressing EGFR (d746-750); assay: Growth inhibitory activity, EGFR (d746-750)-expressing cell line; type: cell-based; conditions: Homo sapiens, HCC827, 72 h; three days culture, CellTiter-Glo
Method: as §3, with “Then, the cells were cultured in an incubator containing 5% carbon dioxide gas at 37° C. for three days.” left out, “The cell growth inhibition rate was calculated by the following formula, and the concentration of the test compound at which the cell growth was inhibited by 50% (GI50 (nM)) was determined. Growth inhibition rate (%)=(C−T)/(C−C0)×100” left out
as §4, §5, §6

[3] = tested on: human epidermoid carcinoma cell line A431 expressing EGFR (WT); assay: Growth inhibitory activity, EGFR (WT)-expressing cell line; type: cell-based; conditions: for GI50: Homo sapiens, A-431, 72 h, three days culture, CellTiter-Glo; for growth-inhibitory activities for EGFR (WT)-expressing cells compared with cells expressing mutant EGFRs, in words: summary of Table 2
Method: as §3, §4, §5, §6

T5 sequence (P00533 669-1210 limits assumed): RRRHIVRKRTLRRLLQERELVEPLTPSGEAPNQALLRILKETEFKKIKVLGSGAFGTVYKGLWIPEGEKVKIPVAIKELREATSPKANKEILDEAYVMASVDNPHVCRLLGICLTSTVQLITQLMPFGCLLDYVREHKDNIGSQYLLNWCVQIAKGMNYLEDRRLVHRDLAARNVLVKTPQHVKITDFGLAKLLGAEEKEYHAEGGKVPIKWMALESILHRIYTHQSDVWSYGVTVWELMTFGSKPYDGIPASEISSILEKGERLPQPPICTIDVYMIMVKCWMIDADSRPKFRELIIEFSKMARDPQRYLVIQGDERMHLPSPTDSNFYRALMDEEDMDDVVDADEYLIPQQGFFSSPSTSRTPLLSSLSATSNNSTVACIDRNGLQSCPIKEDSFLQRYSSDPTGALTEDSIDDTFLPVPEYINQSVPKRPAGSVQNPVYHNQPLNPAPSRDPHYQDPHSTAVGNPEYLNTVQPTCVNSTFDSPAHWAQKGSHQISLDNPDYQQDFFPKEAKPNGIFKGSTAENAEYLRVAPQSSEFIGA
T1 sequence (P00533 25-1210 T790M/L858R): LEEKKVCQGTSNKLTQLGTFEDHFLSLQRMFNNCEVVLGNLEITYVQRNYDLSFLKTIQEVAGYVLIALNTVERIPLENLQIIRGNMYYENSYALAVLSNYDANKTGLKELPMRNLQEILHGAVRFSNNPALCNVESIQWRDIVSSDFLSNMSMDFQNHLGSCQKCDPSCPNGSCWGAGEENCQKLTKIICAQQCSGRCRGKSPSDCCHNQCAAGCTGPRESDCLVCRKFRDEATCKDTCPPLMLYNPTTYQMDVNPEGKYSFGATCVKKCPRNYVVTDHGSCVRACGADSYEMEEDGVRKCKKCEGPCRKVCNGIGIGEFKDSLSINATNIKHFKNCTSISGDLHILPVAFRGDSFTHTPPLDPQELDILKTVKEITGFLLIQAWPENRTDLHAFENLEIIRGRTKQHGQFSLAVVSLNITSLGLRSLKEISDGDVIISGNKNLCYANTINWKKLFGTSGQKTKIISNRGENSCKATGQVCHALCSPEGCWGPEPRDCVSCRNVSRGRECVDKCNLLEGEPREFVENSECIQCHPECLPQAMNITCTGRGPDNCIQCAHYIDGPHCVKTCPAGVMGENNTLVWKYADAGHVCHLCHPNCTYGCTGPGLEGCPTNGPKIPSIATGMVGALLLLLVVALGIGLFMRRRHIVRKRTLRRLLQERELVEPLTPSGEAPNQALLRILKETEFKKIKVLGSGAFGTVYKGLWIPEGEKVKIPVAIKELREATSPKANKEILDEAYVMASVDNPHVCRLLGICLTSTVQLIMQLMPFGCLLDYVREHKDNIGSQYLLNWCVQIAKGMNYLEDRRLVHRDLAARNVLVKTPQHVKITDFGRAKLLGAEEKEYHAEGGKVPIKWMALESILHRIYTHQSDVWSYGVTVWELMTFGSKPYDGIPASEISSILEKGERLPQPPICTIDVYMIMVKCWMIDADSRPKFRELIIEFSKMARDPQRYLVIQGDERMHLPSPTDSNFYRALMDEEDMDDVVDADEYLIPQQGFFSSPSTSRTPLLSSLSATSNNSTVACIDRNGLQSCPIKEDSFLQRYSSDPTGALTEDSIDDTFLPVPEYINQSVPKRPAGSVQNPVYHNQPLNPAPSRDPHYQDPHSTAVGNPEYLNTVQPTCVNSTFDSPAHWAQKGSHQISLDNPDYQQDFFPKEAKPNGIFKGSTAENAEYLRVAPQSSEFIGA
T4 sequence (P00533 with tags, fused parts or gaps DEL746-750 limits assumed): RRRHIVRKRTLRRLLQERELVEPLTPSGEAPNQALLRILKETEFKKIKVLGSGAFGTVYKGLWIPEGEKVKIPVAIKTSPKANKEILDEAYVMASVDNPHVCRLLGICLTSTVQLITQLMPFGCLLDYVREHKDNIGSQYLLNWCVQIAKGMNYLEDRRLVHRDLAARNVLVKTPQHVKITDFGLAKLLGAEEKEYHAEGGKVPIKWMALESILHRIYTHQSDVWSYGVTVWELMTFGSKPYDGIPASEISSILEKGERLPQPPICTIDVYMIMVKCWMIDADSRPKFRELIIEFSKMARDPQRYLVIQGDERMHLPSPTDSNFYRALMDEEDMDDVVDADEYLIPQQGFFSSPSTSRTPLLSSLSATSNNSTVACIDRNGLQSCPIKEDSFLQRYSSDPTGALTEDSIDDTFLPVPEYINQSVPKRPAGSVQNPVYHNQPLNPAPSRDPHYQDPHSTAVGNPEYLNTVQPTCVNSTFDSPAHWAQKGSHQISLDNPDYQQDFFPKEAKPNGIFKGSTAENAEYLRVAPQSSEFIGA
T2 sequence (P00533 with tags, fused parts or gaps DEL746-750/T790M limits assumed): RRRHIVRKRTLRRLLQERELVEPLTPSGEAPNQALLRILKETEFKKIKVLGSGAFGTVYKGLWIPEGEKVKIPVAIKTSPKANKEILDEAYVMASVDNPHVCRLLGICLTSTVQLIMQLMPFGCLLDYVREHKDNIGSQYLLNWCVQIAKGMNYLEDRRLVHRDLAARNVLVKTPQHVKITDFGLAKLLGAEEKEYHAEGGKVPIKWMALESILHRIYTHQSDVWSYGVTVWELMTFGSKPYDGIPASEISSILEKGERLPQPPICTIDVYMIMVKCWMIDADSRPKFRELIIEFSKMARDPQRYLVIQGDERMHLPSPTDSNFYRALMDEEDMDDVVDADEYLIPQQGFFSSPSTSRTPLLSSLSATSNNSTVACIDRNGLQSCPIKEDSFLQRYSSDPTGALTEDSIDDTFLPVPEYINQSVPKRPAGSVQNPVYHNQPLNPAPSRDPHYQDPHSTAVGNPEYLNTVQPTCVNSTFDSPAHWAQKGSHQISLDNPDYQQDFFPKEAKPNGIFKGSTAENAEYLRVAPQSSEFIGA
T3 sequence (P00533 25-1210 L858R): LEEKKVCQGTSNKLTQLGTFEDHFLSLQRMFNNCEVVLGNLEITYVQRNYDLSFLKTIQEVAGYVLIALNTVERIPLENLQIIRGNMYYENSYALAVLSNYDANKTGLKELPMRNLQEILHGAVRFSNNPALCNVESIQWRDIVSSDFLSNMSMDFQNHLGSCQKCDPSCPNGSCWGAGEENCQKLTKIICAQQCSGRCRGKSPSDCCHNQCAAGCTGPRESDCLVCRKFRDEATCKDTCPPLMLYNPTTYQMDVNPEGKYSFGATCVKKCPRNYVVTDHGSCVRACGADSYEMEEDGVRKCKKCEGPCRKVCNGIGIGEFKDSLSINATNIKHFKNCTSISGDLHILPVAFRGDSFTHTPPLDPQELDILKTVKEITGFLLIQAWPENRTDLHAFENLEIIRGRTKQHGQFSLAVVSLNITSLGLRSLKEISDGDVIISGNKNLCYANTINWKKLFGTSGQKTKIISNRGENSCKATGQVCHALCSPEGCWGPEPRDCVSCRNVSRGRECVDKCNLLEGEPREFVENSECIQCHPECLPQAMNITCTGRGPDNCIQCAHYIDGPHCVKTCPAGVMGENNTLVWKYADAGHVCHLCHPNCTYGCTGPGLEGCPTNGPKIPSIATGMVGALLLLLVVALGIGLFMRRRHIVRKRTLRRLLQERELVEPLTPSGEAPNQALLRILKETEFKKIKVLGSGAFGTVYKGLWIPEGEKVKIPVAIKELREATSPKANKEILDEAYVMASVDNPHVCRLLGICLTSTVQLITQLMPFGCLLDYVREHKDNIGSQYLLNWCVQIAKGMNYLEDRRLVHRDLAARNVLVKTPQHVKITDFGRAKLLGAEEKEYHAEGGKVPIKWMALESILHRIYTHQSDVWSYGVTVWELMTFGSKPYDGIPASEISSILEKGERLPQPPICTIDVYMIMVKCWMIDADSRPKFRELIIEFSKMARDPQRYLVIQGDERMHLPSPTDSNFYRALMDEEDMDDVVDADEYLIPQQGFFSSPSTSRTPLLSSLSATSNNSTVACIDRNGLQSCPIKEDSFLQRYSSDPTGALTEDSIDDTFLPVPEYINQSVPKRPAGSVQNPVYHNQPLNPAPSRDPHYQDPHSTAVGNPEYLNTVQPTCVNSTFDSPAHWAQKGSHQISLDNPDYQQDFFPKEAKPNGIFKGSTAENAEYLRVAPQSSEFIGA

pIC50 (EGFR (T790M/L858R))	inhibitory activities for EGFR (L858R), EGFR (d746-750), EGFR (T790M/L858R) and EGFR (d746-750/T790M), in words (EGFR (T790M/L858R))	pIC50 (EGFR (d746-750/T790M))	pIC50 (EGFR (L858R))	pIC50 (EGFR (d746-750))	pIC50 (EGFR (WT))	GI50 [1]	GI50 [2]	GI50 [3]	SMILES	inhibitory activities for EGFR (WT) compared with the mutant EGFR proteins, in words (EGFR (WT))	growth-inhibitory activities for EGFR (d746-750)-expressing and EGFR (T790M/L858R)-expressing cells, in words [1]	growth-inhibitory activities for EGFR (WT)-expressing cells compared with cells expressing mutant EGFRs, in words [3]
9.52	potent inhibitory activities	9.70	9.40	9.40	8.37	27 nM	5 nM	590 nM	C=CC(=O)N[C@H]1CCc2c(-c3cnc4ccccc4c3)c3c(N)ncnc3n2C1 (single isomer, unassigned) [Compound I-2]	lower than those for the above mutant EGFR proteins	potent growth-inhibitory activities	weaker growth-inhibitory activities
8.89	potent inhibitory activities	9.22	8.89	9.00	7.74	86 nM	10 nM	1800 nM	C=CC(=O)N(C)C1CCc2c(-c3cnc4ccccc4c3)c3c(N)ncnc3n2C1 (stereo not drawn) [Compound I-3, N-(4-amino-5-(quinolin-3-yl)-6,7,8,9-tetrahydropyrimido[5,4-b]indolizin-8-yl)-N-methylacrylamide]	lower than those for the above mutant EGFR proteins	potent growth-inhibitory activities	weaker growth-inhibitory activities
